Positions count from the first letter of the chain named. Entries after “also recorded” stand apart in the source; their conditions may differ.
Assays:
[1] = plasma, brain and spinal cord pharmacokinetics after subcutaneous dosing; assay type: in vivo, Male CD-1 mice; details: for distribution into CNS tissue: brain and spinal cord, s.c. dosing, in equilibrium with plasma, no accumulation
Description: FIG. 27A-D show plasma (FIG. 27A), brain (FIG. 27B), and spinal cord (FIG. 27C) pharmacokinetics (PK) of JH-ENT-01 and dilazep. […] Male CD-1 mice (n=3 per time-point) were dosed subcutaneously (inj. volume: 8 μL/g BW) with 30 mg/kg of JH-ENT-01 (free base) and 29 mg/kg (molar equivalent) of dilazep dihydrochloride. Both drugs were formulated in 5% DMSO, 20% PEG-400, 20% propylene glycol, and 55% saline. Blood and tissues were collected at 10 min, 0.5, 1.5, 4.5, 8, 12, and 24 h. Following collection, the animals were perfused with saline. Liquid chromatography-tandem-mass spectrometry (LC/MS/MS) was used to determine drug concentration in samples. Pharmacokinetic parameters were calculated by non-compartmental approach within Win-Nonlin software. […] The distribution of both drugs into CNS tissue is high and is in equilibrium with plasma drug concentration (i.e., no drug accumulation in CNS).

[2] = biological target: T1, hENT2 (Homo sapiens, UniProt Q14542); experiment: 3H-adenosine uptake in oocytes expressing hENT2; assay type: cell-based; details: initial experiment n=1, FIG. 19
T1 construct: expressed in transfected cells; host or cells: oocytes (X. laevis)
T1 sequence (Q14542 1-456): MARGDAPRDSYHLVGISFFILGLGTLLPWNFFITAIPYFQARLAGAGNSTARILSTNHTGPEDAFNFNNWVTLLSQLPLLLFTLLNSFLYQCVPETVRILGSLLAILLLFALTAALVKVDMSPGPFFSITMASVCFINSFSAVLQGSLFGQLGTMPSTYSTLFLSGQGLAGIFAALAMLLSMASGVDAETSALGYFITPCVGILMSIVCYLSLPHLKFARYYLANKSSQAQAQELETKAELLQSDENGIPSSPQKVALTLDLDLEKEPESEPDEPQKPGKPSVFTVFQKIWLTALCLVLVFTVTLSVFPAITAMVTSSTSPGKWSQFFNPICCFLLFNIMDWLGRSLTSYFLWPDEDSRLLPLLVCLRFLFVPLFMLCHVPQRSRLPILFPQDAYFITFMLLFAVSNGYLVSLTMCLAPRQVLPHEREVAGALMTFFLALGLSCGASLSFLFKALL
Description: (§1) Initial experiment (n=1 replicates) showing JH-ENT-01 inhibits both hENT1 and hENT2 mediated uptake of ^3H-adenosine.
(§2) The subtype specificities for these compounds are currently unknown and pending further investigation with functional assays. Towards this end, established assays in oocytes permitted the measurement of nucleoside transport activity for multiple ENT subtypes (FIG. 18C) and the novel inhibitors were tested for their activities on different ENT subtypes (FIG. 19).

[3] = biological target: T2, hENT1cryst (Homo sapiens, UniProt Q99808, DEL243-274/L168F/N288K/P175A); experiment: cold-competition SPA: displacement of 3H-NBMPR from detergent purified hENT1cryst; assay type: binding
T2 construct: GFP; FLAG; His10; made in house
T2 sequence (Q99808 with tags, fused parts or gaps L168F/P175A/DEL243-274/N288K): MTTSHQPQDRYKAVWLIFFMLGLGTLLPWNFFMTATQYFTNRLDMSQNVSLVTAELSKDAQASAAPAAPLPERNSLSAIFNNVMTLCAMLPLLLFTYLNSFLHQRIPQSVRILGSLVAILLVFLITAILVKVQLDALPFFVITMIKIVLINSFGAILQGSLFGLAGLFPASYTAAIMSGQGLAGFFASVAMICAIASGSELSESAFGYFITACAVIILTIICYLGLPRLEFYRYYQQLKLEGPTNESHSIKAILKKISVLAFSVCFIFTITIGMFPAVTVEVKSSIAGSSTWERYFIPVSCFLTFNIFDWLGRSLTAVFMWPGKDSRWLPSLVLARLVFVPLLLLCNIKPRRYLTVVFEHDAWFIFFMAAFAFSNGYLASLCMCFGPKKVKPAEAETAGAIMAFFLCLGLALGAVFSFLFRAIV
Description: The binding of cold competitor (dilazep control or JH-ENT-01) to hENT1cryst (85 nM) was assessed by the displacement of ^3H-NBMPR (10 nM) from the transporter (n=6 technical replicates from two representative experiments shown, error bars represent S.E.M.) FIG. 18A-C show initial functional characterization of novel hENT1 inhibitors.
A scintillation proximity assay was developed to measure binding of ^3H-NBMPR to hENT1-GFP fusion expressed and detergent solubilized from transiently transfected HEK293T cells (see Methods for details). By successively heating the assay mixture at increasing temperatures and measuring binding signal with scintillation counting, Tm values were determined for engineered hENT1 constructs bearing point mutations or truncations of disordered loops. Point mutations were designed based on a consensus approach, which is described in the Methods section of this chapter. A total of 40 point mutations or disordered-loop truncations were screened with this ^3H-NBMPR SPA approach (FIG. 4A). Mutations L168F, P175A and N288K were identified to substantially increase Tm. […] Importantly, hENT1cryst mediates nucleoside transport to a level consistent with a previous report in proteoliposomes (FIG. 3A) and is also functionally active in when expressed in oocytes (FIG. 3B). […]

[4] = biological target: T3, hENT1 (Homo sapiens, UniProt Q99808); experiment: 3H-adenosine uptake in oocytes expressing hENT1; assay type: cell-based; details: initial experiment n=1, FIG. 19
T3 construct: expressed in transfected cells; host or cells: oocytes (X. laevis)
T3 sequence (Q99808 1-456): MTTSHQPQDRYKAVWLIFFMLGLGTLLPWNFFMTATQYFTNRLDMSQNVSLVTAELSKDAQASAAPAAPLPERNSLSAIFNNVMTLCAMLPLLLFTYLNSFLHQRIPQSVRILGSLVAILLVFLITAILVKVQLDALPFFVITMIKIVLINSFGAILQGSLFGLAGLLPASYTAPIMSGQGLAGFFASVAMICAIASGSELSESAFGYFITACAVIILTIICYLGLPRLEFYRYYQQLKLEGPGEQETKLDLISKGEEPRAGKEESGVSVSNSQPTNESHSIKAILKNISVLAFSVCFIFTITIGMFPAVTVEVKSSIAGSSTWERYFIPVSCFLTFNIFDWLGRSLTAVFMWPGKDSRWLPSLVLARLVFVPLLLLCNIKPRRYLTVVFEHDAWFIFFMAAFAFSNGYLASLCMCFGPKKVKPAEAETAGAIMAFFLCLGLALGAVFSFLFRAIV
Description: as §1, §2

[5] = system: SNI-induced neuropathic pain; experiment: SNI-induced neuropathic pain measured by PWF; assay type: in vivo; details: i.t., 100 nmol; p<0.05; n=4 males per group
[6] = biological target: T4, hENT1cryst mutants (M33I, F307A, F307Y) (Homo sapiens, UniProt Q99808, DEL244-275/F307Y/L168F/N288K/P175A); experiment: cold competition displacement of 3H-NBMPR by dilazep, hENT1cryst mutants; assay type: binding; details: F307Y mutant vs hENT1cryst
T4 construct: GFP; FLAG; His10; made in house
T4 sequence (Q99808 with tags, fused parts or gaps L168F/P175A/DEL244-275/N288K/F307Y): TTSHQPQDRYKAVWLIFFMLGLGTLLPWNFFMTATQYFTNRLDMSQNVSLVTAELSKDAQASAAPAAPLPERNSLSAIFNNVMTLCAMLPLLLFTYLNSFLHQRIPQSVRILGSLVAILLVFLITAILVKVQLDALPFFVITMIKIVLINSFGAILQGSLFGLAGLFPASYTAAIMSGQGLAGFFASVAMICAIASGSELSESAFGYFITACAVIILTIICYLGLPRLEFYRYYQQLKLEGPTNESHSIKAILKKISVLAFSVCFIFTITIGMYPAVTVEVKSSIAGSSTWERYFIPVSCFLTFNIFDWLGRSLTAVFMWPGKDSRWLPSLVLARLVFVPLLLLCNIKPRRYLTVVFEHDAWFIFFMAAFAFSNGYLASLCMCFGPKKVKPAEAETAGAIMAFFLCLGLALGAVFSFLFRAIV
Text: (§3) This is substantiated by the equilibrium binding data, as both Q158S and Q158N ablate 3H-NBMPR binding capacity (FIG. 13B). […] This finding is consistent with previous reports on inhibitor sensitivities to substitutions at position 33 of hENT1.

[7] = biological target: T5, hENT1cryst mutants (M33I, F307A, F307Y) (Homo sapiens, UniProt Q99808, DEL244-275/L168F/M33I/N288K/P175A); experiment: as above; assay type: binding; details: M33I mutant vs hENT1cryst
T5 construct: GFP; FLAG; His10; made in house
T5 sequence (Q99808 with tags, fused parts or gaps M33I/L168F/P175A/DEL244-275/N288K): T4 sequence (Q99808 with tags, fused parts or gaps L168F/P175A/DEL244-275/N288K/F307Y) with M32I, Y274F
Text: as §3

[8] = biological target: T6, hENT1cryst mutants (M33I, F307A, F307Y) (Homo sapiens, UniProt Q99808, DEL244-275/F307A/L168F/N288K/P175A); experiment: as above; assay type: binding; details: F307A mutant vs hENT1cryst
T6 construct: GFP; FLAG; His10; made in house
T6 sequence (Q99808 with tags, fused parts or gaps L168F/P175A/DEL244-275/N288K/F307A): T4 sequence (Q99808 with tags, fused parts or gaps L168F/P175A/DEL244-275/N288K/F307Y) with Y274A
Text: as §3

[9] = s.c. 30 mg/kg JH-ENT-01 (free base) vs 29 mg/kg dilazep dihydrochloride

Compound | distribution into CNS tissue [1] | half-life compared to dilazep [1, 9] | plasma AUC compared to dilazep [1, 9] | inhibition of hENT2 mediated uptake of 3H-adenosine [2] | increase in binding affinity to hENT1cryst ([3]; cold competitor vs dilazep control, hENT1cryst 85 nM, 3H-NBMPR 10 nM) [fold] | binding to target ([3]; in words, compared to dilazep (FIG. 17)) | inhibition of hENT1 mediated uptake of 3H-adenosine [4] | effect on SNI-induced neuropathic pain (PWF) [5] | decrease in apparent Kd for dilazep [6] [fold] | increase in apparent Kd for dilazep [7] [fold] | increase in apparent Kd for dilazep [8] [fold]
COc1cc(C(=O)OCCCN2CCCN(CCCOC(=O)c3cc(OC)c(OC)c(OCc4ccc([N+](=O)[O-])cc4)c3)CC2)cc(OC)c1OC [JH-ENT-01] | high | longer half-life | higher plasma AUC | inhibits | ~2 | improved binding to target compared to dilazep | inhibits; also recorded: retains potent inhibition activity | reversing SNI-induced neuropathic pain |  |  | 
COc1cc(C(=O)OCCCN2CCCN(CCCOC(=O)c3cc(OC)c(OC)c(OC)c3)CC2)cc(OC)c1OC [dilazep] | high |  |  |  |  |  |  |  | ~4 | ~3 | ~90

Source: US20260069604A1, “NOVEL EQUILIBRATIVE NUCLEOSIDE TRANSPORTER INHIBITORS AND METHODS OF MAKING AND USING SAME” (Duke University, priority 2022, published 2026)
